Test results taken from patent US20170312253A1 (The Third Affiliated Hospital, Third Military Medical …, priority 2014, published 2017).

Tests used:
[1] = test system: Aβ deposition in the brain; experiment: Quantitative analysis of Aβ deposition in the brain (Congo red, 6E10); assay type: in vivo; conditions: AD mice, Congo red staining and 6E10 immunostaining
Protocol: (§1) APPswe/PS1DE9 (AD) transgenic mice were purchased from Jackson Laboratory, USA (No. 005864), raised in the SPF grade animal house of The Third Affiliated Hospital of The Third Military Medical University. All the processes and correlated experiments applied to the mice were approved and filed with the Animal Ethics Committee of the Third Military Medical University. […] Alternatively, the daily dose for the prophylactic group may be 6.4 mg/kg, and the daily dose for the treatment group may be 12.8 mg/kg. Administration from 3-month old to 9-month old is the prophylactic test, and administration from 9-month old to 12-month old is the therapeutic test After reaching a stated time, the mice in each group received behavioral tests according to the method in the follows. Three mice in each group were taken for Golgi staining. The remaining mice were overly anaesthetized to receive brain anatomy. One side of the cerebral hemisphere was frozen and then for a biochemical analysis, and the other side of the cerebral hemisphere was fixed with 4% paraform for a histological analysis.
The compact Aβ plaque was stained and labelled with Congo red. […] The Aβ plaques in the neopallium and hippocampal area were quantitatively analyzed with ImageJ analysis software to obtain the area percentage of the Aβ plaque and the quantities in a unit area.

[2] = test system: Aβ deposition in the blood vessels of the brain; experiment: Cerebrovascular amyloidosis detection (double immunofluorescence 1a4/6E10); assay type: in vivo; conditions: AD mice
Protocol: as §1
A new assessment method was applied in the present research to assess the severity of the cerebrovascular amyloidosis. The blood vessels in the brain were double immunofluorescence stained with α-smooth muscle action antibody (1a4) and Aβ antibody (6E10), observed under eonfocal laser microscopy (Radiance 2000MP, Bio-Rad), and the images of the blood vessels were recorded. The severity of the CAA of each blood vessel was scored based on the following four-level scale: level 0: no Aβ deposition; level 1: little Aβ deposition, Aβ deposition occupies less than one third of the perimeter of the blood vessel; level 2: moderate Aβ deposition, Aβ deposition occupies more than one third but less than two thirds of the perimeter of the blood vessel; level 3: severe deposition, Aβ deposition occupies more than […] of the perimeter of the blood vessel.

Structure (SMILES): CC1=NN(c2ccccc2)C(=O)C1 [Edaravone, 3-methyl-1-phenyl-2-pyrazolin-5-one]
- Aβ deposition in the brain, of the control group [1]: about 50%
- proportions of the blood vessels at level 0 and level 1 CAA [2]: significantly increased
- proportions of the blood vessels at level 2 and level 3 CAA [2]: significantly reduced
- Aβ deposition in the blood vessels of the brain ([2]; Edaravone treatment group): significantly reduced
